From patent publication US5145854A, “1-formyl-5,8,10-trideazafolates” (priority 1991, dated 1992)
Like-named read-outs stand apart in the source and are kept apart here.

Tests used:
AICARFTase = AICARFTase (Homo sapiens, UniProt P31939); assay: Inhibition of AICARFTase; type: biochemical
[1] = biological target: T1, hog liver glycinamide ribonucleotide formyltransferase (GARFTase) (Sus scrofa, UniProt A0A8W4FJW8); assay: Inhibition of hog liver glycinamide ribonucleotide formyltransferase; type: biochemical; conditions: for IC50: hog liver enzyme, (R,S) diastereomer mixture where marked, read-out: I50 (μM) GARFTase
T1 construct: hog liver glycinamide ribonucleotide formyltransferase; from tissue; host or cells: hog liver
T1 sequence (A0A8W4FJW8 1-1009): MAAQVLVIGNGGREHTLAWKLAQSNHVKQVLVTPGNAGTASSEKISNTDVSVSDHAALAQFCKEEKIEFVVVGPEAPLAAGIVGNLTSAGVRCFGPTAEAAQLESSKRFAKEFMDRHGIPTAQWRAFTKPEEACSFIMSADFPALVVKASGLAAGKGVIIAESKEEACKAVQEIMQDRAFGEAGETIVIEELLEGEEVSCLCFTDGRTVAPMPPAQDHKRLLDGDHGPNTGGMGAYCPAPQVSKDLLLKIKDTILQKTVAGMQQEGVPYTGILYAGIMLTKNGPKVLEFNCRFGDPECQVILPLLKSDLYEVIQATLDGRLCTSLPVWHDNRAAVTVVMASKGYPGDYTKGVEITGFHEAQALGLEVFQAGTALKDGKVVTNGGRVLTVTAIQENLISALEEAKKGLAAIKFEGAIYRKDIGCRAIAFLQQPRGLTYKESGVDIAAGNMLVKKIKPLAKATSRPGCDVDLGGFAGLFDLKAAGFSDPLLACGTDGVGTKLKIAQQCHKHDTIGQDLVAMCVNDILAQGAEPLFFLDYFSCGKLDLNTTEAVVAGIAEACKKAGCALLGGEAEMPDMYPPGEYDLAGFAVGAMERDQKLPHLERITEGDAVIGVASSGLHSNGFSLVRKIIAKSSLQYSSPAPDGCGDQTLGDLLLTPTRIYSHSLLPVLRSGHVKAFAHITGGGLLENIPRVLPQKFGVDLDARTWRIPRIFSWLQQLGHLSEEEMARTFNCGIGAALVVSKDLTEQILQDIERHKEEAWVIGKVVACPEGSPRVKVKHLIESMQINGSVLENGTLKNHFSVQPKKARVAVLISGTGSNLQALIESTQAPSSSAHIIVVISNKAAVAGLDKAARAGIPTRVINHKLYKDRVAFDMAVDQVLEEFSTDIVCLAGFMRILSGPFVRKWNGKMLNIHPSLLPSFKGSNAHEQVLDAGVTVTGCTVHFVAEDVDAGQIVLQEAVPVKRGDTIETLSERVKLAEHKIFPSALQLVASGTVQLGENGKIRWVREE
Text: The representative compound of the present invention is 10-formyl-5,8,10-trideazatetrahydrofolic acid (FTDF) having the formula 1.

Sequence of AICARFTase (P31939 whole entry): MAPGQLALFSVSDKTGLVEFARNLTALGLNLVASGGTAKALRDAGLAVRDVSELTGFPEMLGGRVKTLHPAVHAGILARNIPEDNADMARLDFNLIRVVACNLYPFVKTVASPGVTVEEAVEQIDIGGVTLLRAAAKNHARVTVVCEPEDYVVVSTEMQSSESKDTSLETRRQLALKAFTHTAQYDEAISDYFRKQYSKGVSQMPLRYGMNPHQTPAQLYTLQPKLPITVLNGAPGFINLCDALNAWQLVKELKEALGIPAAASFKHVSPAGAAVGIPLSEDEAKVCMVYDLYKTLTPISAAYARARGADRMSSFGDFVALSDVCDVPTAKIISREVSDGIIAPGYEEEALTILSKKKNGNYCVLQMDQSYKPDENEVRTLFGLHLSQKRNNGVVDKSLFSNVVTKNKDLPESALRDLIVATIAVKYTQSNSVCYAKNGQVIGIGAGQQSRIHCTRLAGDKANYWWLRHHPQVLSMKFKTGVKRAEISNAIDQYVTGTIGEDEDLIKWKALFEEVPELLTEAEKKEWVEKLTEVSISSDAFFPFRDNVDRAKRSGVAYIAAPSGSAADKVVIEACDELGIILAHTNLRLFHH

| SMILES | IC50 (AICARFTase; read-out: I50 (μM) AICARFTase) | potency against GARFTase relative to DDATHF ([1]; hog liver GARFTase, identical experimental conditions) | IC50 [1] | IC50 (AICARFTase) |
| --- | --- | --- | --- | --- |
| Nc1nc2ccc(CC(C=O)c3ccc(C(=O)N[C@@H](CCC(=O)O)C(=O)O)cc3)cc2c(=O)[nH]1 (some centres unmarked) [FTDF, 10-Formyl-5,8,10-trideazafolic Acid] | 18 µM | almost twice as potent | 0.15 µM |  |
| Nc1nc2c(c(=O)[nH]1)CC(CCc1ccc(C(=O)N[C@@H](CCC(=O)O)C(=O)O)cc1)CN2 (some centres unmarked) [DDATHF, 5,10-dideazatetrahydrofolic acid, reference compound] |  |  |  | > 500 µM |
| Nc1nc(N)c(CCCNc2ccc(C(=O)N[C@@H](CCC(=O)O)C(=O)O)cc2)c(=O)[nH]1 [Compound 5-DACTHF, 5-deazaacyclotetrahydrofolic acid, reference compound] |  |  | 2.5 µM |  |
